From ChEMBL document CHEMBL4033762, “Development of Quinazoline/Pyrimidine-2,4(1H,3H)-diones as Agonists of Cannabinoid Receptor Type 2” (ACS Med Chem Lett, 2017) come the findings set out here.

A short description of data set [1]: Ratio of EC50 for agonist activity at CB1 receptor (unknown origin) expressed in CHO cells to EC50 for agonist activity at CB2 receptor (unknown origin) expressed in CHO cells. The arrangement: species or system Homo sapiens.
The target in another data set is Cannabinoid receptor 1 (Homo sapiens, UniProt P21554). Kind of data set: Agonist activity at CB1 receptor (unknown origin) expressed in CHO cells co-expressing G-alpha16 incubated for 24 hrs by fluo-4 AM dye based whole-cell calcium mobilization assay. (Calcium assays in cells follow changes in intracellular calcium, usually with a dye or a luminescent sensor.)
For data set [2], the target named is T1, Cannabinoid receptor 2 (Homo sapiens, UniProt P34972). The data set can be described thus: Agonist activity at CB2 receptor (unknown origin) expressed in CHO cells co-expressing G-alpha16 incubated for 24 hrs by fluo-4 AM dye based whole-cell calcium mobilization assay relative to CP55940. The class given is functional.
The target in data set [3] is T1, Cannabinoid receptor 2. The data set can be described thus: Agonist activity at CB2 receptor (unknown origin) expressed in CHO cells co-expressing G-alpha16 incubated for 24 hrs by fluo-4 AM dye based whole-cell calcium mobilization assay. The class given is functional.
A short description of data set [4]: Lipophilicity, log P of the compound incubated at 37 degC for 20 hrs by HPLC based shake flask method. The class given is physicochemical.

T1 sequence (P34972 whole entry): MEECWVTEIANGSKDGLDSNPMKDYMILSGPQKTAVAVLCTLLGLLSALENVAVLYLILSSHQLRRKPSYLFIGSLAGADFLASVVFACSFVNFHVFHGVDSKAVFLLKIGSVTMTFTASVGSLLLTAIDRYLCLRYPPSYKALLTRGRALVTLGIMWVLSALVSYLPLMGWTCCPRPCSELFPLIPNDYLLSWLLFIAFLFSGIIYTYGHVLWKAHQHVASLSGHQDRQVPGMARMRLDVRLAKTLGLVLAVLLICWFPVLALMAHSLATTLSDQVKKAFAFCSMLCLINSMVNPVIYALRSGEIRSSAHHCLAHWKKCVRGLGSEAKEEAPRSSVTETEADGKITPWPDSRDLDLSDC
Chain of Cannabinoid receptor 1 (P21554 whole entry): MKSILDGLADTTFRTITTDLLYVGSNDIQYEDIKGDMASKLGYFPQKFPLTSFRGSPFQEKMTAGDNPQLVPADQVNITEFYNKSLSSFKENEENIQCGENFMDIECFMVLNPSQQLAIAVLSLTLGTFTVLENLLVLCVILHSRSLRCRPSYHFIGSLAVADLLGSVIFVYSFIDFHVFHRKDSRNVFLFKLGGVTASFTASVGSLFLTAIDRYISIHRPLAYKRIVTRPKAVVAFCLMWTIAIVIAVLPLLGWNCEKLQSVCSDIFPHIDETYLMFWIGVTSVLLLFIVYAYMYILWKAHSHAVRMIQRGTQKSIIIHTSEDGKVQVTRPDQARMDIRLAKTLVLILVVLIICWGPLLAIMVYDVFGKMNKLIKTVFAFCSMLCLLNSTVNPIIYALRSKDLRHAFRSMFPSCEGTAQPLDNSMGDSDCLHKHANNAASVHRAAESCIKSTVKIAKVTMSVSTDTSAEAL

For the compound `CCCCn1c(=O)n(CC(=O)NC(C)(C)C)c(=O)c2c(C)cccc21`, the “Ratio EC50” value in data set [1] is recorded as above 425. The figures for the EC50 on Cannabinoid receptor 1 and on Cannabinoid receptor 2 [3] were above 10000 nM and 23.5 nM, respectively. The Emax (as a rule, the maximal effect, on the per cent scale that the assay sets) on Cannabinoid receptor 2 [2] is 98%.
Regarding `CCCCCn1c(C)c(C2CC2)c(=O)n(CC(=O)NC(C)(C)C)c1=O`, in data set [1], the “Ratio EC50” value is reported as above 37. For the same compound, the EC50 (in general, the concentration needed to bring the measured effect to its halfway point) at Cannabinoid receptor 1 is above 10000 nM; at Cannabinoid receptor 2 [3] it was 270 nM. The Emax on Cannabinoid receptor 2 [2] turned out to be 71%.
Turning to `CCCCCn1c(=O)n(CC(=O)NC(C)(C)C)c(=O)c2cccc(C)c21`, the “Ratio EC50” value in data set [1] was above 361. For the same compound, the EC50 at Cannabinoid receptor 1 is above 10000 nM; on Cannabinoid receptor 2 [3] it was 27.7 nM. Besides, the Emax at Cannabinoid receptor 2 [2] came to 99%.
On the same counts, the results for `CCCCn1c(=O)n(CC(=O)NC(C)(C)C)c(=O)c2ccccc21` are above 89, above 10000 nM, 112 nM and 101%.
On to `CCCCCn1c(=O)n(CC(=O)NC(C)(C)C)c(=O)c2cccc(Cl)c21`, for which the “Ratio EC50” value in data set [1] is above 190. In addition, the values for the EC50 on Cannabinoid receptor 1 and on Cannabinoid receptor 2 [3] were above 10000 nM and 52.7 nM, respectively. Moreover, the Emax at Cannabinoid receptor 2 [2] came out at 118%.
As for `CCCCn1c(C)cc(=O)n(CC(=O)NC(C)(C)C)c1=O`, the EC50 at Cannabinoid receptor 1 and at Cannabinoid receptor 2 [3] was above 10000 nM throughout.
Take `CCCCCn1c(=O)n(CC(=O)NC(C)(C)C)c(=O)c2cccc(OC)c21`: the EC50 on Cannabinoid receptor 1 and on Cannabinoid receptor 2 [3] was above 10000 nM throughout.
In the case of `CCCCCn1c(=O)n(CC(=O)NCC(C)C)c(=O)c2ccccc21`, the “Ratio EC50” value in data set [1] is given as above 27. For the same compound, the EC50 at Cannabinoid receptor 1 was above 10000 nM; at Cannabinoid receptor 2 [3], 370 nM. Besides, the Emax at Cannabinoid receptor 2 [2] came to 81%.
For `CCCCCn1c(=O)n(CC(=O)NC2CCCCC2)c(=O)c2ccccc21`, the 50% effective concentration (EC50) on Cannabinoid receptor 1 and on Cannabinoid receptor 2 [3] was above 10000 nM throughout.
For the compound `CCCCCn1c(C)c(-c2cccc(C)c2)c(=O)n(CC(=O)NC(C)(C)C)c1=O`, the EC50 on Cannabinoid receptor 1 and at Cannabinoid receptor 2 [3] was above 10000 nM each time.
Consider `CCCCCn1c(C)cc(=O)n(CC(=O)NC2CCCCC2)c1=O`, for which the half-maximal effective concentration (EC50) on Cannabinoid receptor 1 and at Cannabinoid receptor 2 [3] was above 10000 nM each time.
As for `O=C(NCC1CCOCC1)c1cnc(Nc2ccc(Cl)cc2Cl)nc1C(F)(F)F` [GW842166X], in data set [1], the “Ratio EC50” value is reported as above 29. Further, the values for the EC50 on Cannabinoid receptor 1 and on Cannabinoid receptor 2 [3] were above 10000 nM and 343 nM, respectively. In addition, on Cannabinoid receptor 2 [2], the maximal effect (Emax) stood at 97%. Further, the log partition coefficient (logP) (usually the decadic logarithm of the partition coefficient of the neutral form, usually between octanol and water) at 20 h in data set [4] was determined as 4.27.
Consider `CCCCCn1c(C)c(-c2ccccc2)c(=O)n(CC(=O)NC(C)(C)C)c1=O`, for which the EC50 at Cannabinoid receptor 1 and at Cannabinoid receptor 2 [3] was above 10000 nM in each case.
As to `CCCCCn1c(=O)n(CC(=O)NC2CCCCC2)c(=O)c2c(OC)cccc21`, the EC50 at Cannabinoid receptor 1 and at Cannabinoid receptor 2 [3] was above 10000 nM each time.
In the case of `CCCCCn1c(=O)n(CC(=O)NC2CCCCC2)c(=O)c2c(Cl)cccc21`, the EC50 on Cannabinoid receptor 1 and on Cannabinoid receptor 2 [3] was above 10000 nM throughout.
Turning to `CCCCn1c(=O)n(CC(=O)NC(C)(C)C)c(=O)c2cccc(C)c21`, the “Ratio EC50” value in data set [1] is on record as above 262. The EC50 was above 10000 nM at Cannabinoid receptor 1 and 38.2 nM at Cannabinoid receptor 2 [3]. Further, on Cannabinoid receptor 2 [2], the Emax was 102%.
In the case of `CCCCCn1c(C)cc(=O)n(CC(=O)NCCCC)c1=O`, the EC50 at Cannabinoid receptor 1 and at Cannabinoid receptor 2 [3] was above 10000 nM each time.
In the case of `CCCCCn1c(=O)n(CC(=O)NC(C)(C)C)c(=O)c2c(C)cccc21`, the “Ratio EC50” value in data set [1] is given as above 715. The EC50 was above 10000 nM on Cannabinoid receptor 1 and 14 nM at Cannabinoid receptor 2 [3]. The Emax at Cannabinoid receptor 2 [2] was 77%. The logP at 20 h in data set [4] is 2.56.
Consider `CCCCCCn1c(C)cc(=O)n(CC(=O)NC(C)(C)C)c1=O`, for which the “Ratio EC50” value in data set [1] is on record as above 13. Further, the EC50 at Cannabinoid receptor 1 is above 10000 nM; on Cannabinoid receptor 2 [3] it was 767 nM. In addition, on Cannabinoid receptor 2 [2], the Emax stood at 65%.
As for `CCCCCn1c(=O)n(CC(=O)NCCCC)c(=O)c2c(C)cccc21`, the “Ratio EC50” value in data set [1] was above 21. For the same compound, the EC50 is above 10000 nM at Cannabinoid receptor 1 and 468 nM at Cannabinoid receptor 2 [3]. Moreover, at Cannabinoid receptor 2 [2], the Emax was 83%.
As for `Cc1cccc2c1c(=O)n(CC(=O)NC(C)(C)C)c(=O)n2CC1CC1`, the “Ratio EC50” value in data set [1] is reported as above 146. For the same compound, the EC50 is above 10000 nM on Cannabinoid receptor 1 and 68.3 nM at Cannabinoid receptor 2 [3]. The Emax on Cannabinoid receptor 2 [2] stood at 106%.
On to `Cc1cccc2c(=O)n(CC(=O)NC(C)(C)C)c(=O)n(CC3CC3)c12`, for which the “Ratio EC50” value in data set [1] was above 32. Further, the EC50 was above 10000 nM on Cannabinoid receptor 1 and 309 nM on Cannabinoid receptor 2 [3]. Besides, on Cannabinoid receptor 2 [2], the Emax was 110%.
With `CCCCCn1c(=O)n(CC(=O)NC(C)(C)C)c(=O)c2c(OC)cccc21`, the “Ratio EC50” value in data set [1] is listed as above 8. Moreover, the figures for the EC50 on Cannabinoid receptor 1 and at Cannabinoid receptor 2 [3] were above 10000 nM and 1250 nM, respectively. Besides, the Emax on Cannabinoid receptor 2 [2] came out at 88%.
Regarding `CCCCCn1c(C)c(I)c(=O)n(CC(=O)NC(C)(C)C)c1=O`, in data set [1], the “Ratio EC50” value is recorded as above 56. In addition, the figures for the EC50 at Cannabinoid receptor 1 and on Cannabinoid receptor 2 [3] were above 10000 nM and 178 nM, respectively. Also, at Cannabinoid receptor 2 [2], the Emax was determined as 78%.
Turning to `CCCCCn1c(=O)n(CC(=O)NC(C)(C)C)c(=O)c2ccccc21`, the “Ratio EC50” value in data set [1] is above 116. The figures for the EC50 at Cannabinoid receptor 1 and at Cannabinoid receptor 2 [3] were above 10000 nM and 86.5 nM, respectively. Moreover, the Emax at Cannabinoid receptor 2 [2] came to 80%.
As for `CCCCCn1c(=O)n(CC(=O)NC2CCCCC2)c(=O)c2c(C)cccc21`, in data set [1], the “Ratio EC50” value was above 25. Besides, the EC50 on Cannabinoid receptor 1 is above 10000 nM; on Cannabinoid receptor 2 [3], 395 nM. For the same compound, the Emax at Cannabinoid receptor 2 [2] was 56%.
As for `C=CCCn1c(=O)n(CC(=O)NC(C)(C)C)c(=O)c2cccc(C)c21`, the “Ratio EC50” value in data set [1] is given as above 100. Moreover, the EC50 is above 10000 nM on Cannabinoid receptor 1 and 99.6 nM at Cannabinoid receptor 2 [3]. Besides, the Emax at Cannabinoid receptor 2 [2] stood at 90%.
With `CCCCCn1c(=O)n(CC(=O)NC(C)C)c(=O)c2ccccc21`, in data set [1], the “Ratio EC50” value is above 47. In addition, the EC50 at Cannabinoid receptor 1 was above 10000 nM; on Cannabinoid receptor 2 [3], 214 nM. Further, the maximal response (Emax) on Cannabinoid receptor 2 [2] is 65%.
In data set [4], `CCCCN1C(=O)/C(=C/NC2CCCCC2)C(=O)c2cccc(C)c21` gave a logP at 20 h of 4.35.
As for `CCCCCn1c(C)c(Br)c(=O)n(CC(=O)NC(C)(C)C)c1=O`, the “Ratio EC50” value in data set [1] is above 205. Moreover, the results for the EC50 at Cannabinoid receptor 1 and on Cannabinoid receptor 2 [3] were above 10000 nM and 48.7 nM, respectively. In addition, on Cannabinoid receptor 2 [2], the maximum response (Emax) amounted to 74%. In data set [4], this compound returned a logP at 20 h of 2.24.
`C=CCCn1c(=O)n(CC(=O)NC(C)(C)C)c(=O)c2c(C)cccc21`: the “Ratio EC50” value in data set [1] is reported as above 214. The EC50 on Cannabinoid receptor 1 was above 10000 nM; on Cannabinoid receptor 2 [3] it was 46.8 nM. Moreover, at Cannabinoid receptor 2 [2], the Emax is 103%.
On the same counts, the results for `CCCCCn1c(C)c(Cl)c(=O)n(CC(=O)NC(C)(C)C)c1=O` are above 44, above 10000 nM, 227 nM and 65%.
Take `CCCCCn1c(=O)n(CC(=O)NCCCC)c(=O)c2c(OC)cccc21`: the EC50 at Cannabinoid receptor 1 and at Cannabinoid receptor 2 [3] was above 10000 nM in each case.
For the compound `CCCCCn1c(=O)n(CC(=O)NC2CC2)c(=O)c2ccccc21`, the “Ratio EC50” value in data set [1] is above 13. Also, the EC50 at Cannabinoid receptor 1 was above 10000 nM; on Cannabinoid receptor 2 [3] it was 743 nM. Besides, the Emax on Cannabinoid receptor 2 [2] was 58%.
As to `CCCCCn1c(=O)n(CC(=O)NCCCC)c(=O)c2c(Cl)cccc21`, in data set [1], the “Ratio EC50” value is listed as above 68. In addition, the half-maximal effective concentration (EC50) is above 10000 nM at Cannabinoid receptor 1 and 147 nM at Cannabinoid receptor 2 [3]. Also, at Cannabinoid receptor 2 [2], the Emax came to 30%.
In the case of `CCCCCn1c(=O)n(CC(=O)NCCCC)c(=O)c2ccccc21`, the “Ratio EC50” value in data set [1] is recorded as above 127. In addition, the EC50 on Cannabinoid receptor 1 was above 10000 nM; on Cannabinoid receptor 2 [3] it was 78.6 nM. Besides, at Cannabinoid receptor 2 [2], the maximal effect (Emax) was 78%.
As for `CCCCCn1c(C)cc(=O)n(CC(=O)NC(C)(C)C)c1=O`, the “Ratio EC50” value in data set [1] was above 13. Also, the half-maximal effective concentration (EC50) at Cannabinoid receptor 1 is above 10000 nM; at Cannabinoid receptor 2 [3], 722 nM. Also, the Emax on Cannabinoid receptor 2 [2] is 72%.
As to `CCCn1c(=O)n(CC(=O)NC(C)(C)C)c(=O)c2ccccc21`, the “Ratio EC50” value in data set [1] was above 7. In addition, the concentration for a half-maximal effect (EC50) on Cannabinoid receptor 1 was above 10000 nM; at Cannabinoid receptor 2 [3] it was 1420 nM. Moreover, the Emax on Cannabinoid receptor 2 [2] was determined as 75%.
For the compound `CCCn1c(=O)n(CC(=O)NC(C)(C)C)c(=O)c2cccc(C)c21`, in data set [1], the “Ratio EC50” value is above 25. Also, the EC50 was above 10000 nM at Cannabinoid receptor 1 and 407 nM at Cannabinoid receptor 2 [3]. At Cannabinoid receptor 2 [2], the Emax came to 121%.
`CCCn1c(=O)n(CC(=O)NC(C)(C)C)c(=O)c2c(C)cccc21`: the “Ratio EC50” value in data set [1] was above 88. Moreover, the EC50 at Cannabinoid receptor 1 was above 10000 nM; on Cannabinoid receptor 2 [3], 113 nM. Moreover, on Cannabinoid receptor 2 [2], the Emax was 113%.
